Source: patent US20140004201A1, “Treatment of Vascular Diseases Using Encapsulated Cells Encoding and Secreting GLP-1, or a Fragment or Variant Thereof” (Biocompatibles UK Ltd., priority 2010, published 2014)
Where no end group is shown, it is not given here.

How the values were obtained:
Rin-5F cells = assay: Anti-apoptotic efficacy, cycloheximid induced apoptosis; assay type: cell-based, rat; settings: 24 hours
Procedure: 40.000 Rin-5F cells were seeded per 96 well and cultivated for 2 days in RPMI supplemented with 1% L-Glutamin and 10% fetal calf serum. […] After 24 hours cell viability is quantified using AlamarBlue.

[1] = In vitro human plasma stability of GLP-1 CM peptides; assay type: in vitro ADME; settings: 20 ng/ml, 37° C., 3 hours
Procedure: Synthetic GLP-1 peptides (SEQ ID NO: 1syn, SEQ ID NO: 6syn, SEQ ID NO: 7rec, SEQ ID NO: 8syn) were incubated at concentrations of 20 ng/ml with human plasma at 37° C. and 5% CO2, for 3 hours. Dipeptidylpeptidase activity of the plasma was inhibited by a DPP-IV inhibitor (#DPP4, Biotrend).

Molecule	anti-apoptotic effect (Rin-5F cells; 1 nM CM1, cycloheximid, serum free, AlamarBlue)	cell viability (Rin-5F cells; CHX 10 μg/ml and 100 μg/ml, different concentrations of CM1)	stability in human plasma in vitro (active GLP) [1]
GLP-1(7-37)-IP2-GLP-1(7-37) [CM1]	significant anti-apoptotic effect	significant (p<0.01) increase of cell viability	
HAEGTFTSDVSSYLEGQAAKEFIAWLVKGRGRRDFPEEVAIAEELG [SEQ ID NO:8, GLP-1(7-37)-IP2]			significantly stabilized
GLP-1(7-37)-IP2-RR-GLP2 (protein, Description of sequence SEQ ID No 7 (ID7rec, CM2) corresponds to GLP-1(7-37)-IP2-RR-GLP2, 83 aa, 9.4 kD) HAEGTFTSDVSSYLEGQAAKEFIAWLVKGRGRRDFPEEVAIAEELGRRHADGSFSDEMSTILDNLATRDFINWLIQTKITDKK			significantly stabilized
